Reference: patent publication US9242996B2 (Novartis AG, priority 2013, dated 2016)

These molecules were tested against activated ERK2 (Homo sapiens (Human), UniProt P28482) (assay: Activated ERK2 kinase assay, ERK2 New conditions (AlphaScreen, ERKtide phosphorylation)). Settings: 0.25 nM ERK2, 200 nM ERKtide peptide, 35 μM ATP, 30 min preincubation.
Assay type: biochemical
In short: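 0.25 nM ERK2 preincubated 30 min with compound, then reacted 2–3 h at ambient temperature with 200 nM ERKtide and 35 µM ATP (final) in HEPES pH 7.5 buffer. EDTA stop; phospho-peptide detected by AlphaScreen after overnight incubation; IC50 from four-parameter fit.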

activated ERK2, sequence (P28482 whole entry): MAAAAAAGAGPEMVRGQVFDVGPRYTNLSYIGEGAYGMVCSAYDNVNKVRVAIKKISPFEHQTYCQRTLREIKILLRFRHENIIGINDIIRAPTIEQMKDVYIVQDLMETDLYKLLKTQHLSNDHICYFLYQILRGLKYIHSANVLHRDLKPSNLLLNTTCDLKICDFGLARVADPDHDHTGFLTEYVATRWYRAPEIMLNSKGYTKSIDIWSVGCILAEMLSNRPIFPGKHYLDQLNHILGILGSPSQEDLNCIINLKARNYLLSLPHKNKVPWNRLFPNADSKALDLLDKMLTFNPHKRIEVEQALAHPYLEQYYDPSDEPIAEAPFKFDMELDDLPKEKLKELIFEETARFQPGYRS

Row | IC50 [nM] | Compound
1 | 2.6 | NC[C@@H](NC(=O)c1ccc(-c2nc(C3CC3)cnc2N)cc1F)c1ccccc1 [Example 252, (S)-N-(2-amino-1-phenylethyl)-4-(3-amino-6-cyclo-propylpyrazin-2-yl)-2-fluorobenzamide]
2 | 31 | Nc1ncc([C@H]2CCOC2)nc1-c1ccc(C(=O)N[C@H](CO)c2ccccc2)cc1 [Example 137, 4-(3-amino-6-((R)-tetrahydrofuran-3-yl)pyrazin-2-yl)-N—((S)-2-hydroxy-1-phenylethyl)benzamide]
3 | 0.2 | Cn1cc(-c2cnc(N)c(-c3ccc(C(=O)NC(CN)c4cccc(Cl)c4)c(F)c3)c2)cn1 (stereo not shown) [Example 307, N-(2-amino-1-(3-chlorophenyl)ethyl)-4-(2-amino-5-(1-methyl-1H-pyrazol-4-yl)pyridin-3-yl)-2-fluorobenzamide]
4 | 3.61 | COC(=O)N1CCC(c2cnc(N)c(-c3ccc(C(=O)N[C@H](CO)c4ccccc4)c(F)c3)n2)CC1 [Example 58, (S)-methyl 4-(5-amino-6-(3-fluoro-4-((2-hydroxy-1-phenylethyl)carbamoyl)phenyl)pyrazin-2-yl)piperidine-1-carboxylate]
5 | 0.378 | Cc1cccc([C@@H](CO)NC(=O)c2ccc(-c3cc(-c4cnnn4C)cnc3N)cc2F)c1 [Example 306, (S)-4-(2-amino-5-(1-methyl-1H-1,2,3-triazol-5-yl)pyridin-3-yl)-2-fluoro-N-(2-hydroxy-1-(m-tolyl)ethyl) benzamide]
6 | 0.326 | Cn1cncc1-c1cnc(N)c(-c2ccc(C(=O)N[C@H](CO)c3cccc(Cl)c3)c(F)c2)c1 [Example 235, (S)-4-(2-amino-5-(1-methyl-1H-imidazol-5-yl)pyridin-3-yl)-N-(1-(3-chlorophenyl)-2-hydroxyethyl)-2-fluorobenzamide]
7 | 0.653 | Cn1cc(-c2cnc(N)c(-c3ccc(C(=O)N[C@H](CO)c4cccc(Cl)c4)c(F)c3)c2)c(C#N)n1 [Example 160, (S)-4-(2-amino 5-(3-cyano-1-methyl-1H-pyrazol-4-yl)pyridin-3-yl)-N-(1-(3-chlorophenyl)-2-hydroxyethyl)-2-fluorobenzamide]
8 | 6030 | COC(=O)CCc1cnc(N)c(-c2ccc(C(=O)NCc3ccccc3)c(F)c2)n1 [Example 19, methyl 3-(5-amino-6-(4-(benzylcarbamoyl)-3-fluorophenyl)pyrazin-2-yl)propanoate]
9 | 107 | Nc1ncc(C2CCOCC2)nc1-c1ccc(C(=O)N2COC[C@@H]2c2ccccc2)cc1 [Example 54, (S)-(4-(3-amino-6-(tetrahydro-2H-pyran-4-yl)pyrazin-2-yl)phenyl)(4-phenyloxazolidin-3-yl)methanone]
10 | 235 | Nc1ncc([C@H]2CC[C@@H](O)CC2)nc1-c1ccc(C(=O)NCc2ccccc2)c(F)c1 [Example 15, 4-(3-amino-6-((1s,4s)-4-hydroxycyclohexyl)pyrazin-2-yl)-N-benzyl-2-fluorobenzamide]
11 | 0.835 | Cn1cc(-c2cnc(N)c(-c3ccc(C(=O)N[C@H](CO)c4cccc(Cl)c4)c(F)c3)c2)nn1 [Example 128, (S)-4-(2-amino-5-(1-methyl-1H-1,2,3-triazol-4-yl)pyridin-3-yl)-N-(1-(3-chlorophenyl)-2-hydroxyethyl)-2-fluorobenzamide]
12 | 3.57 | CCn1cc(-c2cnc(N)c(-c3ccc(C(=O)N[C@H](C)c4cccc(S(C)(=O)=O)c4)c(F)c3)c2)cn1 [Example 299, (R)-4-(2-amino-5-(1-ethyl-1H-pyrazol-4-yl)pyridin-3-yl)-2-fluoro-N-(1-(3-(methylsulfonyl)phenyl)ethyl) benzamide]
13 | 0.593 | COC1CCCC(c2cnc(N)c(-c3ccc(C(=O)N[C@H](CO)c4cccc(Cl)c4)c(F)c3)n2)C1 (mixture of isomers) [Example 123, cis-4-(3-amino-6-(3-methoxycyclohexyl)pyrazin-2-yl)-N-((S)-1-(3-chlorophenyl)-2-hydroxyethyl)-2-fluorobenzamide]
